According to the NIST ThermoML archive (doi:10.1016/j.jct.2005.10.002):
Values joined by “and” are separate entries in the source; they are usually repeats but may differ in a detail not shown here. Equal values may be shown once.

Conditions: Liquid; for mass density: 101.33 kPa

CCC(C)(O)CC [3-methyl-3-pentanol]
Conditions	mass density
278.15 K	840.5 kg/m3 and 841 kg/m3
279.15 K	839.7 kg/m3 and 840.2 kg/m3
280.15 K	838.9 kg/m3 and 839.4 kg/m3
281.15 K	838.1 kg/m3 and 838.5 kg/m3
282.15 K	837.2 kg/m3 and 837.7 kg/m3
283.15 K	836.4 kg/m3 and 836.8 kg/m3
284.15 K	835.6 kg/m3 and 836 kg/m3
285.15 K	834.8 kg/m3 and 835.2 kg/m3
286.15 K	833.9 kg/m3 and 834.4 kg/m3
287.15 K	833.5 kg/m3 and 833.1 kg/m3
288.15 K	832.7 kg/m3 and 832.3 kg/m3
289.15 K	831.9 kg/m3 and 831.4 kg/m3
290.15 K	831 kg/m3 and 830.6 kg/m3
291.15 K	830.1 kg/m3 and 829.7 kg/m3
292.15 K	829.3 kg/m3 and 828.9 kg/m3
293.15 K	828.5 kg/m3 and 828 kg/m3
294.15 K	827.6 kg/m3 and 827.1 kg/m3
295.15 K	826.7 kg/m3 and 826.3 kg/m3
296.15 K	825.9 kg/m3 and 825.4 kg/m3
297.15 K	825 kg/m3 and 824.5 kg/m3
298.15 K	824.1 kg/m3 and 823.6 kg/m3
299.15 K	823.2 kg/m3 and 822.8 kg/m3
300.15 K	822.3 kg/m3 and 821.9 kg/m3
301.15 K	821.5 kg/m3 and 821 kg/m3
302.15 K	820.6 kg/m3 and 820.1 kg/m3
303.15 K	819.7 kg/m3 and 819.2 kg/m3
304.15 K	818.8 kg/m3 and 818.3 kg/m3
305.15 K	817.9 kg/m3 and 817.4 kg/m3
306.15 K	816.9 kg/m3 and 816.5 kg/m3
307.15 K	816 kg/m3 and 815.5 kg/m3
308.15 K	815.1 kg/m3 and 814.6 kg/m3
309.15 K	814.2 kg/m3 and 813.7 kg/m3
310.15 K	813.3 kg/m3 and 812.8 kg/m3
311.15 K	812.3 kg/m3 and 811.8 kg/m3
312.15 K	811.4 kg/m3 and 810.9 kg/m3
313.15 K	810.5 kg/m3 and 810 kg/m3
314.15 K	809.5 kg/m3 and 809 kg/m3
315.15 K	808.6 kg/m3 and 808.1 kg/m3
316.15 K	807.6 kg/m3 and 807.1 kg/m3
317.15 K	806.7 kg/m3 and 806.2 kg/m3
318.15 K	805.7 kg/m3 and 805.2 kg/m3
319.15 K	804.8 kg/m3 and 804.3 kg/m3
320.15 K	803.8 kg/m3 and 803.3 kg/m3
321.15 K	802.8 kg/m3 and 802.3 kg/m3
322.15 K	801.9 kg/m3 and 801.3 kg/m3
323.15 K	800.9 kg/m3 and 800.4 kg/m3
324.15 K	799.9 kg/m3 and 799.4 kg/m3
325.15 K	798.9 kg/m3 and 798.4 kg/m3
326.15 K	798 kg/m3 and 797.4 kg/m3
327.15 K	797 kg/m3 and 796.4 kg/m3
328.15 K	796 kg/m3 and 795.4 kg/m3
329.15 K	795 kg/m3 and 794.4 kg/m3
330.15 K	794 kg/m3 and 793.4 kg/m3
331.15 K	793 kg/m3 and 792.4 kg/m3
332.15 K	792 kg/m3 and 791.4 kg/m3
333.15 K	791 kg/m3 and 790.4 kg/m3
334.15 K	789.9 kg/m3 and 789.4 kg/m3
335.15 K	788.9 kg/m3 and 788.4 kg/m3
336.15 K	787.9 kg/m3 and 787.4 kg/m3
337.15 K	786.9 kg/m3 and 786.4 kg/m3
338.15 K	785.9 kg/m3 and 785.3 kg/m3
339.15 K	784.3 kg/m3
340.15 K	783.3 kg/m3
341.15 K	782.3 kg/m3
342.15 K	781.2 kg/m3
343.15 K	780.2 kg/m3
344.15 K	779.1 kg/m3
345.15 K	778.1 kg/m3
346.15 K	777.1 kg/m3
347.15 K	776 kg/m3
348.15 K	775 kg/m3
349.15 K	773.9 kg/m3
350.15 K	772.9 kg/m3
351.15 K	771.8 kg/m3
352.15 K	770.7 kg/m3
353.15 K	769.7 kg/m3
354.15 K	768.6 kg/m3
355.15 K	767.6 kg/m3
356.15 K	766.5 kg/m3
357.15 K	765.4 kg/m3
358.15 K	764.4 kg/m3
359.15 K	763.3 kg/m3
360.15 K	762.2 kg/m3
361.15 K	761.1 kg/m3
362.15 K	760.1 kg/m3
363.15 K	759 kg/m3
364.15 K	757.9 kg/m3
365.15 K	756.8 kg/m3
366.15 K	755.7 kg/m3
367.15 K	754.6 kg/m3
368.15 K	753.5 kg/m3

speed of sound [m/s]
Conditions	303.15 K	313.15 K	323.15 K	333.15 K	343.15 K	353.15 K	363.15 K	373.15 K
100 kPa	1230.7	1192.7	1154.4	1115.7	1077.3	1037.7	998.2	957.7
10000 kPa	1290.1	1254.9	1219.2	1183.6	1148	1111.6	1076.2	1039.5
20000 kPa	1344.9	1311.8	1278.7	1245	1211.1	1177.7	1144.6	1110.9
30000 kPa	1396.1	1365	1332.4	1300.4	1268.5	1236.9	1205.4	1174
40000 kPa	1443.3	1412.6	1382.1	1351.9	1321.7	1291.4	1261.4	1231.1
50000 kPa	1487.1	1457.9	1428.9	1399.7	1370.5	1342.1	1312.6	1283.7
60000 kPa	1529.7	1500.4	1472.8	1444.4	1416	1387.8	1359.8	1332
70000 kPa	1568.8	1540.7	1513.6	1486.1	1458.4	1431.2	1404.8	1377.5
80000 kPa	1606.2	1578.9	1552.8	1525.6	1499.4	1472.7	1446.9	1420.3
90000 kPa	1641.7	1615	1589.9	1563.8	1537.9	1511.9	1486.5	1461.1
100000 kPa	1675.9	1650	1624.9	1599.9	1574.6	1549.3	1524.4	1499.3

CCC(O)CC [3-pentanol]
speed of sound [m/s]
Conditions	303.15 K	313.15 K	323.15 K	333.15 K	343.15 K	353.15 K	363.15 K	373.15 K
100 kPa	1234.7	1194.7	1155.2	1115.9	1076.8	1036.7	997.3	957.2
10000 kPa	1294	1257	1219.2	1182.2	1146.9	1110.4	1075.3	1038.9
20000 kPa	1348.2	1313	1277.9	1243.1	1209.7	1176.2	1143.2	1109.6
30000 kPa	1397.7	1364.7	1331	1298.2	1266.6	1234.1	1203.5	1171.5
40000 kPa	1443.6	1411.9	1380.2	1348.6	1318.2	1287.8	1258.2	1228.3
50000 kPa	1486.9	1456	1425.8	1395.9	1366.4	1337.3	1308.3	1280.1
60000 kPa	1526	1498.1	1468.5	1439.4	1411.1	1383.1	1355.1	1328.2
70000 kPa	1564.7	1537.4	1508.9	1480.7	1453.1	1425.8	1399.6	1373.1
80000 kPa	1600.5	1574.5	1547.2	1519.8	1492.9	1466.6	1440.8	1415
90000 kPa	1636.4	1610.2	1583.6	1556.9	1530.7	1505	1479.7	1454.6
100000 kPa	1668.2	1644.1	1618.6	1592.2	1566.6	1541.4	1516.9	1492.5
